Test results reported in publication PMC1281266, “Impact of Polychlorinated Biphenyls Contamination on Estrogenic Activity in Human Male Serum” (Environmental Health Perspectives, 2005).
“Also recorded” adds a separate entry of the source.

Legend:
estrogen receptor (ER) [1] = molecular target: T1, estrogen receptor (ER) (Homo sapiens, UniProt P03372); experiment: ER-CALUX bioassay, estrogenic (ER-mediated) activity: induction of luciferase in T47D.Luc cells; format: cell-based; details: for ER-mediated activity (induction of ER-dependent luciferase activity), in words: individual congeners, micromolar concentrations, Figure 2A; for ER-activated activity IEF (induction equivalency factor): ratio between EC50 of E2 and the PCB concentration inducing the same level of luciferase activity
T1 construct: using the human breast carcinoma T47D.Luc cell line, stably transfected with pEREtataLuc construct; host or cells: T47D.Luc (human breast carcinoma, stably transfected with the pEREtataLuc reporter)

estrogen receptor (ER) [2] = molecular target: T1, estrogen receptor (ER); experiment: ER-CALUX bioassay, antiestrogenicity: decrease in response to E2 in co-treated T47D.Luc cells; format: cell-based; details: for Effect of co-treatment on ER activation by E2, in words: co-treatment with 3 pM E2, Figure 2B; for Effect on E2-induced luciferase activity (antiestrogenicity), in words: 3 pM E2, T47D.Luc cells, Figure 3
Experimental: (§1) We determined estrogenic activities of 17 prevalent PCB congeners using the ER-CALUX bioassay (BioDetection Systems) using the human breast carcinoma T47D.Luc cell line, stably transfected with pEREtataLuc construct ([Legler et al. 1999]; [Machala et al. 2004]). ER-mediated activity was also determined in the cells treated with either total serum hexane/diethyl ether extracts or with a fraction of POPs obtained by a consequent sulfuric acid/silica fractionation. […] We determined cytotoxicity of extracts or individual PCBs by a neutral red uptake assay after a 24-hr exposure.

T47D.Luc cells = experiment: Neutral red uptake cytotoxicity assay, 24-hr exposure; format: cell-based, human; details: lowest concentration causing a significant decrease of cell viability; 24-hr exposure Neutral Red uptake
Experimental: as §1

MCF-7 cells [3] = system: MCF-7 cells; parameters: method as in Arcaro et al. 1999; details: ref Arcaro et al. 1999; cited from earlier work
rat uterus = system: rat uterus; parameters: method as in Arcaro et al. 1999; details: ref Arcaro et al. 1999; cited from earlier work
BG1LucE2 cells = system: BG1LucE2 cells; parameters: method as in Rogers and Denison 2000; details: 10 μM concentrations; ref Rogers and Denison 2000; cited from earlier work
MCF-7 cells [4] = system: MCF-7 cells; parameters: method as in Bonenfeld-Jorgensen et al. 2001; details: ref Bonenfeld-Jorgensen et al. 2001; cited from earlier work
AhR = molecular target: T2, AhR (Rattus norvegicus, UniProt P41738); experiment: DR-CALUX luciferase reporter gene assay, dioxin-like activity; format: cell-based; details: data not shown
T2 construct: a luciferase reporter gene assay (DR-CALUX; BioDetection Systems, Amsterdam, the Netherlands) as described previously; rat hepatoma H4IIE.Luc by own knowledge of the DR-CALUX assay
T2 sequence (P41738 10-853): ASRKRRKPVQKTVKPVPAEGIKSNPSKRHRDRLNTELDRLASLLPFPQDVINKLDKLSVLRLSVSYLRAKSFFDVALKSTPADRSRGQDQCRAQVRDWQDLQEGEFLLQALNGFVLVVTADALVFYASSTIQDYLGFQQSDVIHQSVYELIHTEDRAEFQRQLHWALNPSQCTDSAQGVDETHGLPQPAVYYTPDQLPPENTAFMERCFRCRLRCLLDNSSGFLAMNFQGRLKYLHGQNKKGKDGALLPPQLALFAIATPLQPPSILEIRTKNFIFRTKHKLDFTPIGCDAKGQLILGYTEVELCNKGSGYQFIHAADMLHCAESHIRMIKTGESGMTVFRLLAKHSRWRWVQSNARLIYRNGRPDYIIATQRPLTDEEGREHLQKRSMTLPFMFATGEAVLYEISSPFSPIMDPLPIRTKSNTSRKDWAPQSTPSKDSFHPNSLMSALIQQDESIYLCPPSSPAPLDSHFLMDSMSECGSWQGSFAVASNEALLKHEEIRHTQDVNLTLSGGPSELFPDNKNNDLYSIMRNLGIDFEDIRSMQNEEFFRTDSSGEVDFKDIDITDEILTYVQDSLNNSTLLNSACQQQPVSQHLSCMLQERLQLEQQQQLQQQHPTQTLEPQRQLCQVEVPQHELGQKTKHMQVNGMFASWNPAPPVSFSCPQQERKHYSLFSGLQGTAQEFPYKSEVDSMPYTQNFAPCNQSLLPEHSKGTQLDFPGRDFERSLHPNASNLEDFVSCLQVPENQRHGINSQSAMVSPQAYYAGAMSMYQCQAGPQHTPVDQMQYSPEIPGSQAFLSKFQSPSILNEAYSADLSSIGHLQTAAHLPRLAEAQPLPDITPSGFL
Experimental: We determined the levels of cytochrome P450 (CYP) 1A1 and CYP1B1 mRNA in human peripheral lymphocytes by RNA extraction and a quantitative reverse-transcriptase-polymerase chain reaction (RT-PCR) method using TaqMan technology ([Canton et al. 2003]; [van Duursen et al. 2005]). The in vitro potencies of POPs present in serum to activate AhR were measured in sulfuric acid/silica-treated extracts by a luciferase reporter gene assay (DR-CALUX; BioDetection Systems, Amsterdam, the Netherlands) as described previously ([Murk et al. 1996]).

Row | Compound | ER-mediated activity (induction of ER-dependent luciferase activity), in words (estrogen receptor (ER) [1]) | Cytotoxicity LOEC (T47D.Luc cells) [µM] | Effect on E2-induced luciferase activity (antiestrogenicity), in words (estrogen receptor (ER) [2]) | IC50 (estrogen receptor (ER) [2]) [µM] | further results
1 | Clc1ccc(-c2ccc(Cl)cc2Cl)cc1 [PCB 28, 2,4,4′-Trichlorobiphenyl] | significant ER-mediated activity; also recorded: induced the ER-mediated activity | > 20 |  |  | EC50 (estrogen receptor (ER) [1]): 8.23 µM; Effect of co-treatment on ER activation by E2, in words (estrogen receptor (ER) [2]): potentiated
2 | Clc1ccc(Cl)c(-c2cc(Cl)ccc2Cl)c1 [PCB 52, 2,2′,5,5′-Tetrachlorobiphenyl] | significant ER-mediated activity; also recorded: induced the ER-mediated activity | > 20 |  |  | EC50 (estrogen receptor (ER) [1]): 9.52 µM; Effect of co-treatment on ER activation by E2, in words (estrogen receptor (ER) [2]): potentiated
3 | Clc1cccc(Cl)c1-c1c(Cl)cccc1Cl [PCB 54, 2,2′,6,6′-Tetrachlorobiphenyl] |  |  |  |  | Estrogenicity in the MCF-7 cell focus assay (MCF-7 cells [3]): estrogenic; Estrogenicity in the rat uterotrophic assay (rat uterus): estrogenic
4 | Clc1ccc(-c2ccc(Cl)c(Cl)c2)c(Cl)c1 [PCB 66, 2,3′,4,4′-Tetrachlorobiphenyl] | significant ER-mediated activity; also recorded: induced the ER-mediated activity | > 40 |  |  | EC50 (estrogen receptor (ER) [1]): 24.3 µM; ER-mediated (estrogenic) activity in BG1LucE2 cells (BG1LucE2 cells): estrogenic
5 | Clc1ccc(-c2cc(Cl)c(Cl)cc2Cl)cc1 [PCB 74, 2,4,4′,5-Tetrachlorobiphenyl] | significant ER-mediated activity; also recorded: induced the ER-mediated activity | > 40 |  |  | EC50 (estrogen receptor (ER) [1]): 17 µM
6 | Clc1ccc(-c2ccc(Cl)c(Cl)c2)cc1Cl [PCB 77, 3,3′,4,4′-tetrachlorobiphenyl] |  |  |  |  | ER-mediated (estrogenic) activity in BG1LucE2 cells (BG1LucE2 cells): no ER-mediated activity
7 | Clc1ccc(Cl)c(-c2c(Cl)ccc(Cl)c2Cl)c1 [PCB 95, 2,2′,3,5′,6-pentachlorobiphenyl] |  |  |  |  | ER-mediated (estrogenic) activity in BG1LucE2 cells (BG1LucE2 cells): estrogenic
8 | Clc1ccc(-c2cc(Cl)c(Cl)cc2Cl)c(Cl)c1 [PCB 99, 2,2′,4,4′,5-Pentachlorobiphenyl] | only partial ER agonists; also recorded: induced the ER-mediated activity | > 40 |  |  | ER-activated activity IEC (induction equivalency concentration) (estrogen receptor (ER) [1]): WI (key: NI: no significant induction/inhibition; WI: weak induction/inhibition (< 50% of estradiol maximum induction); ER-activated activity IEF (induction equivalency factor) (estrogen receptor (ER) [1]): WI (weak induction/inhibition (< 50% of estradiol maximum induction)
9 | Clc1ccc(-c2ccc(Cl)c(Cl)c2Cl)cc1Cl [PCB 105, 2,3,3′,4,4′-Pentachlorobiphenyl] | only partial ER agonists; also recorded: induced the ER-mediated activity | > 40 |  |  | ER-activated activity IEC (induction equivalency concentration) (estrogen receptor (ER) [1]): WI (key: NI: no significant induction/inhibition; WI: weak induction/inhibition (< 50% of estradiol maximum induction); ER-activated activity IEF (induction equivalency factor) (estrogen receptor (ER) [1]): WI (weak induction/inhibition (< 50% of estradiol maximum induction)
10 | Clc1ccc(-c2cc(Cl)c(Cl)cc2Cl)cc1Cl [PCB 118, 2,3′,4,4′,5-Pentachlorobiphenyl] |  | > 20 |  |  | 
11 | Clc1ccc(-c2cc(Cl)c(Cl)c(Cl)c2)cc1Cl [PCB 126, 3,3′,4,4′,5-Pentachlorobiphenyl] |  | > 40 | not elicited |  | 
12 | Clc1cc(Cl)c(-c2ccc(Cl)c(Cl)c2Cl)cc1Cl [PCB 138, 2,2′,3,4,4′,5′-Hexachlorobiphenyl] | did not induce | 20 | significantly decreased | 10.1 | Antiestrogenic effects in reporter gene and cell proliferation MCF-7 assays (MCF-7 cells [4]): Antiestrogenic effects
13 | Clc1ccc(-c2cc(Cl)c(Cl)c(Cl)c2Cl)cc1Cl [PCB 156, 2,3,3′,4,4′,5-Hexachlorobiphenyl] |  | 40 |  |  | Antiestrogenicity IhEF (inhibitory equivalency factor) (estrogen receptor (ER) [2]): WI (key: NI: no significant induction/inhibition; WI: weak induction/inhibition (< 50% of estradiol maximum induction; < 50% decrease in induction of 3 pM E2)); Antiestrogenicity IC50 (estrogen receptor (ER) [2]; 50% decrease in luciferase activity induced by 3 pM E2, T47D.Luc cells): WI (weak induction/inhibition (< 50% of estradiol maximum induction; < 50% decrease in induction of 3 pM E2))
14 | Clc1ccc(-c2cc(Cl)c(Cl)c(Cl)c2Cl)c(Cl)c1Cl [PCB 170, 2,2′,3,3′,4,4′,5-Heptachlorobiphenyl] | did not induce | 25 | significantly decreased | 16 | 
15 | Clc1cc(Cl)c(-c2cc(Cl)c(Cl)c(Cl)c2Cl)cc1Cl [PCB 180, 2,2′,3,4,4′,5,5′-Heptachlorobiphenyl] | did not induce | 20 | significantly decreased | 9.32 | Antiestrogenic effects in reporter gene and cell proliferation MCF-7 assays (MCF-7 cells [4]): Antiestrogenic effects
16 | Clc1cc(Cl)c(-c2c(Cl)c(Cl)cc(Cl)c2Cl)cc1Cl [PCB 187, 2,2′,3,4′,5,5′,6-Heptachlorobiphenyl] |  | 20 |  |  | 
17 | Clc1cc(-c2cc(Cl)c(Cl)c(Cl)c2Cl)c(Cl)c(Cl)c1Cl [PCB 194, 2,2′,3,3′,4,4′,5,5′-Octachlorobiphenyl] | did not induce | 25 | significantly decreased | 14.1 | 
18 | Clc1cc(Cl)c(-c2c(Cl)c(Cl)cc(Cl)c2Cl)c(Cl)c1Cl [PCB 199, 2,2′,3,3′,4′,5,6,6′-Octachlorobiphenyl] | did not induce | 20 | significantly decreased | 2.85 | 
19 | Clc1cc(Cl)c(-c2c(Cl)c(Cl)c(Cl)c(Cl)c2Cl)cc1Cl [PCB 203, 2,2′,3,4,4′,5,5′,6-Octachlorobiphenyl] | did not induce | 20 | significantly decreased | 3.2 | 
20 | ClC(Cl)=C(c1ccc(Cl)cc1)c1ccc(Cl)cc1 [p,p′-DDE] |  |  |  |  | Estrogenic activity, in words (estrogen receptor (ER) [1]; data not shown): weak estrogenic; Dioxin-like activity, in words (AhR): no dioxin-like activity
